Experimental data from patent publication US20140171516A1, “GERANYLGERANYLACETONE FORMULATIONS” (COYOTE PHARMACEUTICALS, INC., priority 2012, published 2014).
Read-outs that look alike come from different tables or passages of the source.

Experiments:
[1] = Intraocular GGA level, topical ocular versus oral systemic administration; assay type: in vivo; details: topical ocular composition of 5% GGA versus 200 mg/kg GGA by systemic administration orally
[2] = Rat ocular pharmacokinetics study, Cohort 1: geranylgeranyl acetone concentration in eyes after topical eye drops; assay type: in vivo; details: Sprague-Dawley, 0.25 mg/eye, 8 doses, average of 3 rats

levels of geranylgeranyl acetone achieved intraocularly, topical versus oral [1] | concentration at 8 h ([2]; contralateral eye, contralateral eye concentration (ng/g in Table 7), read-out: 8 h contra AVE) [ng/g] | concentration at 8 h ([2]; treated (ipsilateral) eye, treated eye concentration (ng/g in Table 7), read-out: 8 h ispi AVE) [ng/g] | Structure (SMILES)
about 5 fold |  |  | CC(=O)CCC=C(C)CC/C=C(\C)CC/C=C(\C)CCC=C(C)C (mixture of isomers) [GGA, Geranylgeranyl acetone]
 | 2100 | 8770 | CC(=O)CC/C=C(\C)CC/C=C(\C)CC/C=C(\C)CCC=C(C)C [CNS-102, all-trans geranylgeranyl acetone]
